For assay [1], the system named is HIV transcripts (TAR, LLTR, Pol, PolyA, TatRev). As to the kind of experiment: Baseline HIV transcription without activation, PBMCs from ART-suppressed PWH, 24 hours. In kind it is cell-based. Particulars: no activation; for LLTR HIV transcripts (DMSO = 100) / Pol HIV transcripts (DMSO = 100) / PolyA HIV transcripts (DMSO = 100) / Tat-Rev HIV transcripts (DMSO = 100) / TAR HIV transcripts (DMSO = 100): ruxolitinib 4μM, dinaciclib 8nM, AZD4573 8nM, pladienolide B 10nM, KRIBB11 2.5μM. The procedure:
For a selection of the compounds, we evaluated the ability to reduce baseline HIV transcription without activation. PBMCs were cultured in the presence of individual drugs in DMSO or DMSO alone as a control and harvested after 24 hours. For each drug, we tested PBMCs from at least 3 PWH, as indicated in Supplemental Figure 5B. […] Likewise, pladienolide B appeared to reduce the level of multiply spliced transcripts (33%, Supplemental Figure 5, A and B).
PBMCs were isolated from fresh venous blood from 16 ART-suppressed HIV-infected study participants using Ficoll density gradient centrifugation. The cells were seeded at 6 × 10^6 cells/well and cultured with antiretrovirals (nevirapine and indinavir) to prevent new infection. On the next day, PBMCs were activated with anti-CD3/CD28–coated beads (Invitrogen) in the presence of 20 U/mL IL-2 and individual drugs in DMSO or DMSO alone as a control. Since we were limited in the PBMC yield per study participant, different study participants were used for different experiments (such as the initial screen, dose response, different time points, and studies in activated vs. unstimulated cells). In addition, the yields of PBMCs were sometimes insufficient to test all drugs for a given question or experiment.
Total cellular DNA and RNA were extracted in parallel using Trireagent (Molecular Research Center) according to the manufacturer’s instructions, except for study participants 2147 and 2461 (Figure 4), for whom DNA and RNA were extracted using the QIAGEN AllPrep DNA/RNA/miRNA Universal Kit with on-column DNase I treatment of the RNA and the manufacturer’s modification to enhance recovery of short transcripts. RNA and DNA concentrations were measured using UV spectrophotometry (NanoDrop One, Thermo Fisher Scientific). Total initiated HIV (TAR) transcripts were quantified by a 3-step polyadenylation RT-ddPCR as described previously ([8], [84]). HIV 5′ elongated (LLTR), midtranscribed (Pol), completed (PolyA), and multiply spliced (TatRev) transcripts were quantified by a 2-step RT-ddPCR as previously described ([8]). The levels of each HIV transcript were normalized to 1 μg of total cellular RNA and expressed as a percentage of the (activated) DMSO control. To quantify virion-associated RNA in supernatant, RNA was extracted from 400 μL supernatant using Trireagent-LS (Molecular Research Center) according to the manufacturer’s instructions. Levels of U3-polyadenylated HIV RNA were measured in the supernatant by RT-ddPCR, normalized to copies/mL, and expressed as a percentage of the activated DMSO. For measuring the HIV infection frequency at day 6, the HIV DNA U3-U5 LTR region was quantified by using ddPCR as described previously ([8]). HIV DNA copies were normalized to cell numbers according to the mass of DNA input per well (calculated from the DNA concentration and input volume) ([85]).
Figure S5. CDK-inhibitors appear to decrease baseline HIV splicing even in the absence of T cell activation. Each drug was tested in PBMCs from at least three ART-suppressed study participants and PBMCs were aliquoted into wells at 6x10^6 cells/well. The cells were cultured with antiretrovirals but without activation in the presence of individual drugs in (1 picture or pasted object on this page, not shown here)
DMSO or DMSO alone as control. After 24h, total RNA was extracted and the progression through different stages of HIV transcription was quantified by measuring the levels of initiated (TAR), 5’ elongated (LLTR), mid-transcribed/unspliced (Pol), completed (PolyA) and multiply spliced (TatRev) HIV transcripts. A-B) The levels of all HIV transcripts were quantified, normalized to 1 µg of total cellular RNA, and expressed as a percent of the DMSO control (% of DMSO). A) Medians are shown, as well as the values of the individual study participants in different colors. B) The medians from panel A) are presented. The effect of each drug on the different transcripts was studied in three to six study participants, as […]

In a further assay the test system is PBMCs. The experiment in a line: Total number of live cells (proliferation) by trypan blue staining at day 6. In kind it is cell-based, human. The note with it: day 6; Figure 6A. The procedure:
Some of our candidate LPAs can block the effects of T cell activation, which could affect T cell proliferation. Therefore, we evaluated the extent to which variations in the level of infected cells may contribute to reductions in different HIV RNA transcripts. We measured the total number of viable cells (as a measure of proliferation) and the conserved U3-U5 LTR HIV DNA region (as a measure of total infection frequency) at day 6.
(A) After 6 days, the total number of live cells was measured by trypan blue staining and then normalized to the levels of the activated DMSO (% of activated DMSO). All conditions were tested in the presence of CD3^+/CD28^+ T cell–activating beads, except for the unactivated DMSO condition. Bars indicate medians, and different colors indicate individual study participants. Comparisons were performed using Wilcoxon’s signed-rank test. (B) Total cellular DNA was extracted, and the levels of U3-U5 HIV DNA were measured to quantify infection frequency at 6 days. HIV DNA levels were normalized to copies per 10^6 cells using the input of cellular DNA (assuming 1 μg of total DNA corresponds to 160,000 cells) and then normalized to the activated DMSO control (% of activated DMSO). Bars indicate medians, and different colors indicate individual study participants.

`N#CC[C@H](C1CCCC1)n1cc(-c2ncnc3[nH]ccc23)cn1` [ruxolitinib]: the “HIV transcription levels in the absence of T cell activation (in words)” value in assay [1] (24 hours, at least 3 PWH) was “little effect”. In assay [1] (participant 156), the “LLTR HIV transcripts (DMSO = 100)” value worked out at 91.78, the “Pol HIV transcripts (DMSO = 100)” value is on record as 118.18, the “PolyA HIV transcripts (DMSO = 100)” value turned out to be 108.3 and the “Tat-Rev HIV transcripts (DMSO = 100)” value was 167.91. Further, in assay [1] (participant 163), the “LLTR HIV transcripts (DMSO = 100)” value is listed as 148.94, the “Pol HIV transcripts (DMSO = 100)” value is 91.9, the “PolyA HIV transcripts (DMSO = 100)” value is recorded as 183.43 and the “Tat-Rev HIV transcripts (DMSO = 100)” value was determined as 0. Moreover, in assay [1] (participant 1379), the “LLTR HIV transcripts (DMSO = 100)” value came to 49.44, the “Pol HIV transcripts (DMSO = 100)” value is listed as 31.32, the “PolyA HIV transcripts (DMSO = 100)” value was 9.4 and the “TAR HIV transcripts (DMSO = 100)” value is reported as 170. Besides, in assay [1] (participant 2027), the “LLTR HIV transcripts (DMSO = 100)” value worked out at 57.36, the “Pol HIV transcripts (DMSO = 100)” value is given as 74.54, the “PolyA HIV transcripts (DMSO = 100)” value came to 109.96 and the “TAR HIV transcripts (DMSO = 100)” value amounted to 90.7. In the assay with PBMCs, the “Total live cell numbers (proliferation) compared with activated DMSO (in words)” value is “significantly lower”.

(Values after PMC11466185, “Mechanisms and efficacy of small molecule latency-promoting agents to inhibit HIV reactivation ex vivo” (JCI Insight, 2024).)
